Source: PMC5447332 (Targeted Oncology, 2017)
Values joined by “and” are separate entries in the source; they are usually repeats but may differ in a detail not shown here. Equal values may be shown once. “Also recorded” adds a separate entry of the source. Read-outs that look alike come from different tables or passages of the source.

What was measured:
[1] = Pharmacokinetics of BEZ235 in plasma, phase Ib combination with everolimus; assay type: in vivo, human (patients with advanced solid tumors); conditions: for Apparent clearance, CL/F / Cmax / Dose / half-life / AUC(0-t) / AUC(0-inf) / Cmax / Tmax: plasma; for half-life / AUC(0-t) / AUC(0-inf) / Cmax / Tmax: human
[2] = BEZ235 200 mg twice daily; cited from earlier work
[3] = preclinical studies; ref not given; cited from earlier work
[4] = Pharmacokinetics of everolimus in whole blood when co-administered with BEZ235; assay type: in vivo, human (patients with advanced solid tumors)
[5] = cited from earlier work
[6] = whole blood; ref not given; cited from earlier work
[7] = BEZ235 200 mg/d + everolimus 2.5 mg/d oral, day 1, mean ± SE
[8] = BEZ235 200 mg/d + everolimus 2.5 mg/d oral, day 28, mean ± SE
[9] = BEZ235 400 mg/d + everolimus 2.5 mg/d oral, day 1, mean ± SE
[10] = BEZ235 400 mg/d + everolimus 2.5 mg/d oral, day 28, mean ± SE
[11] = BEZ235 800 mg/d + everolimus 2.5 mg/d oral, day 1, mean ± SE
[12] = BEZ235 800 mg/d + everolimus 2.5 mg/d oral, day 28, mean ± SE
[13] = po, BEZ235 200 mg/d + everolimus 2.5 mg/d oral, day 1, mean ± SE
[14] = po, BEZ235 200 mg/d + everolimus 2.5 mg/d oral, day 28, mean ± SE
[15] = po, BEZ235 400 mg/d + everolimus 2.5 mg/d oral, day 1, mean ± SE
[16] = po, BEZ235 400 mg/d + everolimus 2.5 mg/d oral, day 28, mean ± SE
[17] = po, BEZ235 800 mg/d + everolimus 2.5 mg/d oral, day 1, mean ± SE
[18] = po, BEZ235 800 mg/d + everolimus 2.5 mg/d oral, day 28, mean ± SE
[19] = everolimus 2.5 mg/d oral + BEZ235 200-800 mg/d, day 1, whole blood, mean ± SE

Structure (SMILES): Cn1c(=O)n(-c2ccc(C(C)(C)C#N)cc2)c2c3cc(-c4cnc5ccccc5c4)ccc3ncc21 [BEZ235, dactolisib]
- Apparent clearance, CL/F [1, 7]: 629.6 ± 278.1 L/h
- Cmax / Dose [1, 7]: 0.2 ng/mL/mg and 0.2 ± 0.1 ng/mL/mg
- Apparent clearance, CL/F [1, 8]: 116.3 ± 24.4 L/h
- Cmax / Dose [1, 8]: 1.1 ± 0.6 ng/mL/mg
- Apparent clearance, CL/F [1, 9]: 644.3 ± 192.9 L/h
- Cmax / Dose [1, 9]: 0.3 ng/mL/mg and 0.3 ± 0.1 ng/mL/mg
- Apparent clearance, CL/F [1, 10]: 309.3 ± 241.3 L/h
- Cmax / Dose [1, 10]: 0.6 ± 0.5 ng/mL/mg
- Apparent clearance, CL/F [1, 11]: 773.9 ± 262.1 L/h
- Cmax / Dose [1, 11]: 0.3 ng/mL/mg and 0.3 ± 0.1 ng/mL/mg
- Apparent clearance, CL/F [1, 12]: 355.9 ± 246.6 L/h
- Cmax / Dose [1, 12]: 1.1 ± 0.7 ng/mL/mg
- Drug levels at steady state relative to single dose administration ([1]; BEZ235 200-800 mg): ~3 fold
- half-life ([1]; oral, Steady-state half-life, range over 200-800 mg/day): 15 to 43 h
- AUC(0-t) ([1]; po, AUC 0-24, BEZ235 200 mg/d + everolimus 2.5 mg/d oral, day 1, mean ± SE): 433 ± 96 ng·h/mL
- AUC(0-t) ([1]; po, AUC 0-24, BEZ235 200 mg/d + everolimus 2.5 mg/d oral, day 28, mean ± SE): 1470 ± 515 ng·h/mL
- AUC(0-t) ([1]; po, AUC 0-24, BEZ235 400 mg/d + everolimus 2.5 mg/d oral, day 1, mean ± SE): 741 ± 171 ng·h/mL
- AUC(0-t) ([1]; po, AUC 0-24, BEZ235 400 mg/d + everolimus 2.5 mg/d oral, day 28, mean ± SE): 1460 ± 1250 ng·h/mL
- AUC(0-t) ([1]; po, AUC 0-24, BEZ235 800 mg/d + everolimus 2.5 mg/d oral, day 1, mean ± SE): 2080 ± 666 ng·h/mL
- AUC(0-t) ([1]; po, AUC 0-24, BEZ235 800 mg/d + everolimus 2.5 mg/d oral, day 28, mean ± SE): 7800 ± 5610 ng·h/mL
- AUC(0-inf) [1, 13]: 468 ± 118 ng·h/mL
- AUC(0-inf) [1, 14]: 1490 ± 691 ng·h/mL
- AUC(0-inf) [1, 15]: 831 ± 163 ng·h/mL
- AUC(0-inf) [1, 16]: 2710 ± 2340 ng·h/mL
- AUC(0-inf) [1, 17]: 2170 ± 675 ng·h/mL
- AUC(0-inf) [1, 18]: 8880 ± 6590 ng·h/mL
- Cmax [1, 13]: 45.2 ± 11.4 ng/mL
- Cmax [1, 14]: 214 ± 114 ng/mL
- Cmax [1, 15]: 102 ± 22.4 ng/mL
- Cmax [1, 16]: 227 ± 198 ng/mL
- Cmax [1, 17]: 243 ± 52.7 ng/mL
- Cmax [1, 18]: 880 ± 570 ng/mL
- half-life ([1]; po, Terminal half-life, BEZ235 200 mg/d + everolimus 2.5 mg/d oral, day 1, mean ± SE): 3.2 ± 1 h
- half-life ([1]; po, Terminal half-life, BEZ235 200 mg/d + everolimus 2.5 mg/d oral, day 28 (steady state), mean ± SE): 19.2 ± 2.5 h
- half-life ([1]; po, Terminal half-life, BEZ235 400 mg/d + everolimus 2.5 mg/d oral, day 1, mean ± SE): 8.6 ± 1.5 h
- half-life ([1]; po, Terminal half-life, BEZ235 400 mg/d + everolimus 2.5 mg/d oral, day 28 (steady state), mean ± SE): 43.4 ± 10.8 h
- half-life ([1]; po, Terminal half-life, BEZ235 800 mg/d + everolimus 2.5 mg/d oral, day 1, mean ± SE): 5.9 ± 0.7 h
- half-life ([1]; po, Terminal half-life, BEZ235 800 mg/d + everolimus 2.5 mg/d oral, day 28 (steady state), mean ± SE): 15 ± 6.4 h
- Tmax [1, 13]: 3.8 ± 1.6 h
- Tmax [1, 14]: 2.7 ± 0.7 h
- Tmax [1, 15]: 2.5 ± 0.9 h
- Tmax [1, 16]: 1.5 ± 0.5 h
- Tmax [1, 17]: 2.6 ± 0.8 h
- Tmax [1, 18]: 2 h
- Accumulation higher than anticipated ([1]; multiple dosing, day 28): 2–3 fold
- Oral bioavailability (oral availability) ([1]; patients, SDS sachet, this study): quite low; also recorded: remained low
- Average plasma concentration ([1]; steady state, doses of 200 to 800 mg/day): 61 to 324 ng/mL
- AUC0-24 [2]: 752.9 ng·h/mL
- Aqueous solubility [3]: poor

Structure (SMILES): CO[C@H]1C[C@@H]2CC[C@@H](C)[C@@](O)(O2)C(=O)C(=O)N2CCCC[C@H]2C(=O)O[C@H]([C@H](C)C[C@@H]2CC[C@@H](OCCO)[C@H](OC)C2)CC(=O)[C@H](C)/C=C(\C)[C@@H](O)[C@@H](OC)C(=O)[C@H](C)C[C@H](C)/C=C/C=C/C=C/1C [Everolimus, everolimus]
- Increase in dose-normalized AUC0-24 (exposure), combination with BEZ235 compared to everolimus alone ([4]; everolimus 2.5 mg/d + BEZ235 vs reported everolimus alone (ref 23)): 1.7 fold
- Apparent clearance, CL/F [4, 19]: 24.76 ± 2.91 L/h
- Cmax / Dose [4, 19]: 5.63 ± 0.6 ng/mL/mg
- Cmax / Dose ([4]; everolimus 2.5 mg/d oral + BEZ235 200-800 mg/d, day 28, whole blood, mean ± SE): 12.67 ± 2.96 ng/mL/mg
- Reported everolimus clearance ([5]; 5 mg dosed alone): 21.3 L/h
- Reported everolimus clearance ([5]; 10 mg dosed alone): 27.3 L/h
- Median Tmax ([5]; everolimus after oral administration, ref not given): 1 to 2 h
- Dose-normalized Cmax ([5]; everolimus dosed alone, cancer patients): 6.3 ng/mL
- Oral bioavailability ([5]; everolimus, ref not given): low
- Binding to erythrocytes [6]: 85%
